In the NIST ThermoML archive (doi:10.1016/j.jct.2018.10.006):
Numbers after ± are expanded uncertainties.

Assay: molar heat capacity at constant pressure
Conditions: 101.33 kPa, Crystal 2, Small (less than 1 g) adiabatic calorimetry

O=P([O-])([O-])[O-].[Cs+].[Ni+2] [cesium nickel monophosphate]
Conditions | molar heat capacity at constant pressure [J/K/mol]
5 K | 0.898 ± 0.033
6 K | 1.272 ± 0.042
6.21 K | 1.255 ± 0.042
6.51 K | 1.413 ± 0.042
6.82 K | 1.605 ± 0.05
7 K | 1.721 ± 0.05
7.13 K | 1.788 ± 0.05
7.51 K | 1.987 ± 0.058
7.97 K | 2.195 ± 0.058
8 K | 2.203 ± 0.058
8.43 K | 2.444 ± 0.067
8.87 K | 2.627 ± 0.067
9 K | 2.719 ± 0.075
9.32 K | 2.902 ± 0.075
9.77 K | 3.176 ± 0.083
10 K | 3.351 ± 0.083
10.24 K | 3.492 ± 0.091
10.72 K | 3.908 ± 0.1
11.23 K | 4.299 ± 0.11
11.76 K | 4.756 ± 0.12
12.55 K | 5.496 ± 0.13
13.09 K | 6.119 ± 0.15
13.82 K | 6.826 ± 0.16
14.55 K | 7.566 ± 0.17
15 K | 8.032 ± 0.18
15.28 K | 8.431 ± 0.11
16.02 K | 9.146 ± 0.12
16.77 K | 9.844 ± 0.12
17.78 K | 10.73 ± 0.12
18.33 K | 11.31 ± 0.13
19.12 K | 12.07 ± 0.13
19.94 K | 13.03 ± 0.14
20 K | 13.06 ± 0.14
21.96 K | 15.22 ± 0.16
24.23 K | 17.56 ± 0.17
25 K | 18.54 ± 0.17
26.66 K | 20.67 ± 0.18
29.06 K | 23.5 ± 0.19
30 K | 24.62 ± 0.2
31.53 K | 26.28 ± 0.21
34.01 K | 28.63 ± 0.22
35 K | 29.56 ± 0.23
36.46 K | 30.81 ± 0.24
38.9 K | 33.32 ± 0.25
40 K | 34.26 ± 0.26
41.34 K | 35.6 ± 0.22
43.79 K | 38.06 ± 0.23
45 K | 39.07 ± 0.24
46.25 K | 40.1 ± 0.24
48.71 K | 42.56 ± 0.26
50 K | 43.9 ± 0.27
51.87 K | 45.56 ± 0.27
53.99 K | 47.57 ± 0.28
56.52 K | 50.12 ± 0.29
58.51 K | 51.87 ± 0.3
60 K | 52.93 ± 0.3
61.71 K | 54.33 ± 0.31
63.47 K | 55.42 ± 0.32
67.49 K | 58.66 ± 0.33
68.37 K | 59.49 ± 0.33
70 K | 60.41 ± 0.34
70.84 K | 61.18 ± 0.34
73.34 K | 62.62 ± 0.35
75.82 K | 64.02 ± 0.36
78.29 K | 65.34 ± 0.36
80 K | 66.38 ± 0.37
80.75 K | 66.68 ± 0.37
81.73 K | 67.23 ± 0.37
83.21 K | 67.91 ± 0.37
85.55 K | 69.26 ± 0.37
85.67 K | 69.26 ± 0.37
88.13 K | 70.96 ± 0.38
88.91 K | 71.04 ± 0.38
90 K | 71.65 ± 0.41
92.27 K | 73.08 ± 0.42
95.63 K | 74.82 ± 0.42
98.99 K | 76.75 ± 0.42
100 K | 77.58 ± 0.43
102.34 K | 78.95 ± 0.43
105.7 K | 80.67 ± 0.44
109.06 K | 82.69 ± 0.45
110 K | 82.93 ± 0.45
112.41 K | 84.06 ± 0.5
115.76 K | 85.56 ± 0.5
119.1 K | 86.8 ± 0.5
120 K | 87.3 ± 0.5
122.44 K | 88.22 ± 0.5
125.78 K | 89.96 ± 0.5
129.12 K | 91.04 ± 0.5
130 K | 91.38 ± 0.5
132.46 K | 92.37 ± 0.5
135.8 K | 93.29 ± 0.5
139.13 K | 94.95 ± 0.5
140 K | 95.37 ± 0.5
142.46 K | 96.61 ± 0.5
145.78 K | 97.86 ± 0.5
149.1 K | 99.03 ± 0.5
150 K | 99.52 ± 0.5
152.42 K | 100.44 ± 0.5
155.74 K | 101.69 ± 0.5
159.04 K | 103.27 ± 0.5
